Data published in ChEMBL document CHEMBL4507276 (2021).

Columns and labels:
[1] = target: T1, G protein-coupled receptor kinase 3 (Homo sapiens) (UniProt P35626); assay: ADRBK2 Invitrogen selectivity data (BI); conditions: Compound concentration 3.0 uM
T1 sequence (whole entry): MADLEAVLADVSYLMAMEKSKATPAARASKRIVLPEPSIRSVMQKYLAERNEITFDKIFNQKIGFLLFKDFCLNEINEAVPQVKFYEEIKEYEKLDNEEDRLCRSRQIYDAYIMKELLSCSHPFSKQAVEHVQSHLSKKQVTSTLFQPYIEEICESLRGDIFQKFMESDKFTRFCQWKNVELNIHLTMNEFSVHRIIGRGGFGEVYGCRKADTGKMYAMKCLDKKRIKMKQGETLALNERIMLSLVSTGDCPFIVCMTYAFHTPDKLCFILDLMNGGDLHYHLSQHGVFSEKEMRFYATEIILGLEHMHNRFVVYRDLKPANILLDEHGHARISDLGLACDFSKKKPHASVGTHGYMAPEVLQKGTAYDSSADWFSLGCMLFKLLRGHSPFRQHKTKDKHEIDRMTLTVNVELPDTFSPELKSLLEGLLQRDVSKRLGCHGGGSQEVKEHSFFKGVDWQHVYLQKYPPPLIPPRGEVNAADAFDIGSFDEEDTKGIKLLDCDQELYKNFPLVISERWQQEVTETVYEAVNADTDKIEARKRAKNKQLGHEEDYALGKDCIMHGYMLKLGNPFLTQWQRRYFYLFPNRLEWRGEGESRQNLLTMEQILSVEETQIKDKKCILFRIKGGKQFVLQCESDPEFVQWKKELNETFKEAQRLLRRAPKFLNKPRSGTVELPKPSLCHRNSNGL

[2] = target: T2, Tyrosine-protein kinase TXK (Homo sapiens) (UniProt P42681); assay: TXK Invitrogen selectivity data (BI); conditions: Compound concentration 3.0 uM
T2 sequence (whole entry): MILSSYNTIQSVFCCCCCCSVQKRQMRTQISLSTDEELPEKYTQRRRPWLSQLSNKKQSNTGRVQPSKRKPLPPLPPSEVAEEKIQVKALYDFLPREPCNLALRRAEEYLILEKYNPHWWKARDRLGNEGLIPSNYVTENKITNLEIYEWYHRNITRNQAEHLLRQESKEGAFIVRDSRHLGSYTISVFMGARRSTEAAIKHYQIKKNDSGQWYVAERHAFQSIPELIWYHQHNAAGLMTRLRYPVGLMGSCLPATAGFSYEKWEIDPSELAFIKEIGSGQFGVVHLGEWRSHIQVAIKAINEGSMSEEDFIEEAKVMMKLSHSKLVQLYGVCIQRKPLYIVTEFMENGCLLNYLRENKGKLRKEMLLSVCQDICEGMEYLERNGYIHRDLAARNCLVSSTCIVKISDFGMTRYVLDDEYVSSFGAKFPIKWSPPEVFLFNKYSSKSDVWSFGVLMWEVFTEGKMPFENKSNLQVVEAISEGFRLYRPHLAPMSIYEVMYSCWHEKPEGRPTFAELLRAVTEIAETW

[3] = target: Serine/threonine-protein kinase PAK 6 (Homo sapiens) (UniProt Q9NQU5); assay: PAK6 Invitrogen selectivity data (BI); conditions: Compound concentration 3.0 uM
Serine/threonine-protein kinase PAK 6 (Homo sapiens), sequence (Q9NQU5 whole entry, looked up): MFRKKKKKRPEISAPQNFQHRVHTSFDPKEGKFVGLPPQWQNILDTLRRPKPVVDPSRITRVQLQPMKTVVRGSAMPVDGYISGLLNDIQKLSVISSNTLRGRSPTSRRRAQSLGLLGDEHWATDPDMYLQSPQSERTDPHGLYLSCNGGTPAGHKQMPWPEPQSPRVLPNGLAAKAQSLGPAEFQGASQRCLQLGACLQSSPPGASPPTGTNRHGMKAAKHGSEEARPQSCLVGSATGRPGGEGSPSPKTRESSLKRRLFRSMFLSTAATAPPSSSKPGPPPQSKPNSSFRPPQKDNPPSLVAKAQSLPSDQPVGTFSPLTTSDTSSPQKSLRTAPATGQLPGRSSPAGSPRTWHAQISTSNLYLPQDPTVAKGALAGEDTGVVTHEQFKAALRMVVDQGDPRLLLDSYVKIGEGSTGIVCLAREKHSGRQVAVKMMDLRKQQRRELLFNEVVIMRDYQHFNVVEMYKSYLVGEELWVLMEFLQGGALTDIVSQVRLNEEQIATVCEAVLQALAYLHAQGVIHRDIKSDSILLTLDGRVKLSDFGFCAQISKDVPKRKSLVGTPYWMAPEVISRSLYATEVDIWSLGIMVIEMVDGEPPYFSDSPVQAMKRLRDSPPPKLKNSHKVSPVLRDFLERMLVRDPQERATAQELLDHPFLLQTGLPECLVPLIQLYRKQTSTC

[4] = target: Glycogen synthase kinase-3 alpha (Homo sapiens) (UniProt P49840); assay: GSK3A Invitrogen selectivity data (BI); conditions: Compound concentration 3.0 uM
[5] = target: STE20-like serine/threonine-protein kinase (Homo sapiens) (UniProt Q9H2G2); assay: SLK Invitrogen selectivity data (BI); conditions: Compound concentration 3.0 uM
STE20-like serine/threonine-protein kinase (Homo sapiens), sequence (Q9H2G2 whole entry, looked up): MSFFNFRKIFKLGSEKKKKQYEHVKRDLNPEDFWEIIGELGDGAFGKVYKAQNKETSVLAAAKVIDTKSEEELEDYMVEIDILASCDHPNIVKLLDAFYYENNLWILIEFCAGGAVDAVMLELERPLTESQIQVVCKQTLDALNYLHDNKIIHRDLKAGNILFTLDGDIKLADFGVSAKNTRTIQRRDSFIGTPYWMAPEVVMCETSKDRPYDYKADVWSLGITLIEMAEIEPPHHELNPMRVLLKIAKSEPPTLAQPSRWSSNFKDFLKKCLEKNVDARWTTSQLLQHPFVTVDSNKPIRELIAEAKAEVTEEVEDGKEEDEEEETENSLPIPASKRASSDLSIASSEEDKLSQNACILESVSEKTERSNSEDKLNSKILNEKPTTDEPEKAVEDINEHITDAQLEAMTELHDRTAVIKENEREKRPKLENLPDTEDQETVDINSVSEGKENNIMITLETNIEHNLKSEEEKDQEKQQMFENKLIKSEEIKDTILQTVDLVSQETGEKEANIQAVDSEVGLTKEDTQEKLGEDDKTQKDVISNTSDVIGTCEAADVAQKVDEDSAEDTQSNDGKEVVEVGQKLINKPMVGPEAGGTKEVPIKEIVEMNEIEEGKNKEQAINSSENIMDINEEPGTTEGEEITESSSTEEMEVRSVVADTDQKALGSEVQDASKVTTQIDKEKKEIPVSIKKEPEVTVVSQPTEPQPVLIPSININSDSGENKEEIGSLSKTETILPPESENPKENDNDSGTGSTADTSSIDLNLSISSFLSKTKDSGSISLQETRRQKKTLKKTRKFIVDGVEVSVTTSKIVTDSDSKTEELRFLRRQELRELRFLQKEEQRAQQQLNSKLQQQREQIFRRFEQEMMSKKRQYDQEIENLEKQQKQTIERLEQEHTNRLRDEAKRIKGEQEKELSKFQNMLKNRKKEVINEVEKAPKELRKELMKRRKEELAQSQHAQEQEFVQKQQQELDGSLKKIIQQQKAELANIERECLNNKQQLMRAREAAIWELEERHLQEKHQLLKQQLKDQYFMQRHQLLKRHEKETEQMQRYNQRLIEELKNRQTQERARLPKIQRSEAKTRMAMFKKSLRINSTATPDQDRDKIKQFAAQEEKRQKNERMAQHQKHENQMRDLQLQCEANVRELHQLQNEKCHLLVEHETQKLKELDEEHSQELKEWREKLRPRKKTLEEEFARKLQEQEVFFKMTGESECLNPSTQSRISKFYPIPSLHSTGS

[6] = target: Sodium channel regulatory subunit beta-1 (Rattus norvegicus) (UniProt Q00954); assay: NA+/SITE2/RA Eurofins-Panlabs selectivity data (BI); conditions: Compound concentration 10.0 uM
Sodium channel regulatory subunit beta-1 (Rattus norvegicus), sequence (Q00954 whole entry): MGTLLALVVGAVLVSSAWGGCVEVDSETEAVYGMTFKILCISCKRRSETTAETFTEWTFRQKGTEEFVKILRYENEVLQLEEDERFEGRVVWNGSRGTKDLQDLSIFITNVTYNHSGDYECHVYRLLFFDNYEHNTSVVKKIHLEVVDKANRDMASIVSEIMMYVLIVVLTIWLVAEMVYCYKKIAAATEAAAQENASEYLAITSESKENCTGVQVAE

[7] = target: Alpha-1B adrenergic receptor (Rattus norvegicus) (UniProt P15823); assay: ALPHA1B/R Eurofins-Panlabs selectivity data (BI); conditions: Compound concentration 10.0 uM
Alpha-1B adrenergic receptor (Rattus norvegicus), sequence (P15823 whole entry, looked up): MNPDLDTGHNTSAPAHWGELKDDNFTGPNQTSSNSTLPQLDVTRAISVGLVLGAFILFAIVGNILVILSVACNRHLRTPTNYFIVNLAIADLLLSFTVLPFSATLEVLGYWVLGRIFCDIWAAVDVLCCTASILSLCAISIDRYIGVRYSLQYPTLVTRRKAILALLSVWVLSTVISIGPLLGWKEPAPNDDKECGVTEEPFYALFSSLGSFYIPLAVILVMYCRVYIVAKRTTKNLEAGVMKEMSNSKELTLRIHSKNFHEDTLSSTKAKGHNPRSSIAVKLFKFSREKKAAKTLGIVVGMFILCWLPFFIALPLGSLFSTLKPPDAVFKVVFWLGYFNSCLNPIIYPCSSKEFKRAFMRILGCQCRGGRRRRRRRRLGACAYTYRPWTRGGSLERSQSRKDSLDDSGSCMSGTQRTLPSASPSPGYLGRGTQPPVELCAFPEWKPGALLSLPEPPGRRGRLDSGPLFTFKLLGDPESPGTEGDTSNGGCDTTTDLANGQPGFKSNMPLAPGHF

[8] = target: Prostacyclin receptor (Homo sapiens) (UniProt P43119); assay: PGI2/H Cerep selectivity data (BI); conditions: Compound concentration 20.0 uM
Prostacyclin receptor (Homo sapiens), sequence (P43119 whole entry): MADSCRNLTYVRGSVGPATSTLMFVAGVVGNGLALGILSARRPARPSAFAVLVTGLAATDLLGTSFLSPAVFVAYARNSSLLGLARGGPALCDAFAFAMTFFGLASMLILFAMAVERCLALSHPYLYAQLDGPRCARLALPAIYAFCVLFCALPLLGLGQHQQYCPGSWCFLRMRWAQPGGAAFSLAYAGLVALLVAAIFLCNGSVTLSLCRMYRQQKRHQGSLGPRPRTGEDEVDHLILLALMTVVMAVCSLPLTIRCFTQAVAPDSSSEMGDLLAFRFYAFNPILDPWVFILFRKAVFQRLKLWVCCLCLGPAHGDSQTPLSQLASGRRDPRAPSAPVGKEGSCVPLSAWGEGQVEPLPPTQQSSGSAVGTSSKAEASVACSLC

[9] = target: Dual specificity protein kinase CLK3 (Homo sapiens) (UniProt P49761); assay: CLK3 Invitrogen selectivity data (BI); conditions: Compound concentration 3.0 uM
Dual specificity protein kinase CLK3 (Homo sapiens), sequence (P49761 whole entry, looked up): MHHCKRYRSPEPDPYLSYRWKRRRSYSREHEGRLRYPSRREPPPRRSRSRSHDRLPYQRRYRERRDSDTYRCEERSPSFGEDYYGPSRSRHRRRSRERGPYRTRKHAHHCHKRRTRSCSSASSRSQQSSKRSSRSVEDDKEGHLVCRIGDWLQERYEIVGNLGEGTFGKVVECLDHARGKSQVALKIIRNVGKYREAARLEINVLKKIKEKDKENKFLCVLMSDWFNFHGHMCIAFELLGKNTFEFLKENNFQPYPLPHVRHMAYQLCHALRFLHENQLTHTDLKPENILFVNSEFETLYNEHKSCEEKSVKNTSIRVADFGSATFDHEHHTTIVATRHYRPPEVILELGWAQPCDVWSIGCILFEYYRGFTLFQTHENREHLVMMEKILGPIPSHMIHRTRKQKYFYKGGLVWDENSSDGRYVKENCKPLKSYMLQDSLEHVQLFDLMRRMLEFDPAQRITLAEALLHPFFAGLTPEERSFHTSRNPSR

[10] = target: 5-hydroxytryptamine receptor 6 (Homo sapiens) (UniProt P50406); assay: 5HT6/H Cerep selectivity data (BI); conditions: Compound concentration 20.0 uM
5-hydroxytryptamine receptor 6 (Homo sapiens), sequence (P50406 whole entry): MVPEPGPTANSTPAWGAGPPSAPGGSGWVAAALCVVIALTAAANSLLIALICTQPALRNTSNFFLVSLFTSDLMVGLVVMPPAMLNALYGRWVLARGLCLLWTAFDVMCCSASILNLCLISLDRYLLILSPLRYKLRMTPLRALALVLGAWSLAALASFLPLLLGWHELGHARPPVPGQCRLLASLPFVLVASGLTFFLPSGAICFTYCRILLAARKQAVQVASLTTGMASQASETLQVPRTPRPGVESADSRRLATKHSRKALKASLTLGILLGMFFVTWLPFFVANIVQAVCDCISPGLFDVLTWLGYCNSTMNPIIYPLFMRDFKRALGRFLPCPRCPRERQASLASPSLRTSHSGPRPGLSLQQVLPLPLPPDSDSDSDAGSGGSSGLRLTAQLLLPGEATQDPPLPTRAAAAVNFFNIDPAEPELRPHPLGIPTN

[11] = target: 5-hydroxytryptamine receptor 2B (Homo sapiens) (UniProt P41595); assay: 5HT2B/HU Eurofins-Panlabs selectivity data (BI); conditions: Compound concentration 10.0 uM
5-hydroxytryptamine receptor 2B (Homo sapiens), sequence (P41595 whole entry): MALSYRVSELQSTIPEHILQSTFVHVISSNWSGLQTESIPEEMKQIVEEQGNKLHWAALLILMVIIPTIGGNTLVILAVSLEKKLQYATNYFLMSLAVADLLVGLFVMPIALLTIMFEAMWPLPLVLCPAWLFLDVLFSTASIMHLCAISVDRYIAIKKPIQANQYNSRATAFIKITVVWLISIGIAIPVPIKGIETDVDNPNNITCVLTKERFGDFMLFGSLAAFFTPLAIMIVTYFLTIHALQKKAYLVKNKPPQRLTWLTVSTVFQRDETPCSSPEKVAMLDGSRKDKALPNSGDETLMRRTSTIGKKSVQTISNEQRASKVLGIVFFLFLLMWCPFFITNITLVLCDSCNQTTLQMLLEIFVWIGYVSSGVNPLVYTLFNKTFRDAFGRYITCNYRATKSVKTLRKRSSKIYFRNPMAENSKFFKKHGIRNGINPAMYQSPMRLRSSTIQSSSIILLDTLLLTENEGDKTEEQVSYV

[12] = target: Tyrosine-protein kinase BTK (Homo sapiens) (UniProt Q06187); assay: BTK Invitrogen selectivity data (BI); conditions: Compound concentration 3.0 uM
[13] = target: T3, Protein kinase C iota type (Homo sapiens) (UniProt P41743); assay: PRKCI Invitrogen selectivity data (BI); conditions: Compound concentration 3.0 uM
T3 sequence (whole entry): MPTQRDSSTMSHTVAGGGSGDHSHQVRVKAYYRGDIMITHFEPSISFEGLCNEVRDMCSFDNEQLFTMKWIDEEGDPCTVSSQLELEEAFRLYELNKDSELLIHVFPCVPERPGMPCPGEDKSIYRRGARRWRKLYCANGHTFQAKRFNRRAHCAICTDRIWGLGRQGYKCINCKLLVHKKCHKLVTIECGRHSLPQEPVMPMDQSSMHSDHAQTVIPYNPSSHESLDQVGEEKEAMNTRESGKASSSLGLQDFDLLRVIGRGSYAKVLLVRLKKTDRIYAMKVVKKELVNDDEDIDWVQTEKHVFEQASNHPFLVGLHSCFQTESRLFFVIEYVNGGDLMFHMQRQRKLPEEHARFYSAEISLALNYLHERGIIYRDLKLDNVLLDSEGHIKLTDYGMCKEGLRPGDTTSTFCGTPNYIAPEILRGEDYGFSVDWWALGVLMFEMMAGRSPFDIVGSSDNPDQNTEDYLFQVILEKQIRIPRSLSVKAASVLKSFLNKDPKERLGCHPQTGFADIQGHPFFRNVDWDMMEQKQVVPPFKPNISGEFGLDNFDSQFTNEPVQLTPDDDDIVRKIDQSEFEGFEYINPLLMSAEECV

[14] = target: Prostaglandin E2 receptor EP2 subtype (Homo sapiens) (UniProt P43116); assay: EP2(H) Cerep selectivity data (BI); conditions: filed as agonist, Compound concentration 20.0 uM
Prostaglandin E2 receptor EP2 subtype (Homo sapiens), sequence (P43116 whole entry): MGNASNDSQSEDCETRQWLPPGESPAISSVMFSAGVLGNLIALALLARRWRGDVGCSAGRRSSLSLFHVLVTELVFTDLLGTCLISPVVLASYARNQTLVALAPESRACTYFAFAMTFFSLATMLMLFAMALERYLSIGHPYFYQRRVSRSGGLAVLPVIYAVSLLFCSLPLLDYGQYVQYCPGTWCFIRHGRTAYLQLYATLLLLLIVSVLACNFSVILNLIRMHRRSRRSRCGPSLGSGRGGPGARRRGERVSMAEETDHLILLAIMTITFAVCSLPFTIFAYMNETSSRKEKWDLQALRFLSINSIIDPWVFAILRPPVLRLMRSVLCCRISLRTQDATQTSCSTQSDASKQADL

Measured: residual activity

CN(C)C(=O)Cn1cc(-c2nc([C@@](C)(c3ccc(-c4cnc(N)nc4)cc3)C3CC3)no2)cn1 [BI 665915]
inactive: [1] 100% | [2] 95% | [3] 93.5% | [4] 96% | [5] 99% | [6] 84% | [7] 96% | [8] 94% | [9] 95.5% | [10] 95% | [11] 97% | [12] 89.5% | [13] 97% | [14] 97%
